The subject of assay [1] is human breast cancer cell HCC1806. Kind of assay: Proliferation of HCC1806 cells, MTT assay. To be noted: HCC1806, 72 h, 3 days treatment, read-out: IC50 (inhibition of proliferation of HCC1806). It counts as cell-based. Background: Tetrazolium assays rely on reduction of a dye to a coloured formazan, in cell work by metabolically active cells.
The target of the next assay is T1, CHK1 kinase (Homo sapiens, UniProt O14757).
T1 construct: purchased Promega V1941
T1 sequence (O14757 1-476): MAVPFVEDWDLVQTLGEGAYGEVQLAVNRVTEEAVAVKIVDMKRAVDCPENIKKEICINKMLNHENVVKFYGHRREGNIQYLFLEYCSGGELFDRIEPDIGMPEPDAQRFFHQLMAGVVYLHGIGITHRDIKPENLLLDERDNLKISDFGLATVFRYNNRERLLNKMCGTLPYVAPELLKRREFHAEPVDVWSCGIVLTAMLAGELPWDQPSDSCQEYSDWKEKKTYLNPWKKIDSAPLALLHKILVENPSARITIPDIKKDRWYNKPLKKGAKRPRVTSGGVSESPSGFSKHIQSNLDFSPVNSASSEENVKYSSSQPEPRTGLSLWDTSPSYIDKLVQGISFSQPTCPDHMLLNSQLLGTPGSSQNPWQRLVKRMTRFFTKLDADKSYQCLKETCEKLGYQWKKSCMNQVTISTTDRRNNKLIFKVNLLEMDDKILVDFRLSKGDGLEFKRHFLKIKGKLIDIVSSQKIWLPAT
In words: CHK1 kinase inhibition, ADP-Glo kinase assay. To be noted: ATP 10 μM, CHK1 1 ng/well; for inhibition at 0.01 µM: compound concentration 10 nM, read-out: Inh % (inhibitory effect on CHK1 kinase activity); for IC50: read-out: IC50 (inhibitory effect on CHK1 kinase activity). It counts as biochemical.

In assay [2] the test system is human pancreatic cancer cell SW1990. Kind of assay: Proliferation of SW1990 cells, MTT assay. Type of assay: cell-based. To be noted: SW1990, 120 h, 5 days treatment, read-out: IC50 (inhibition of proliferation of SW1990). As to the method:
Newly revived SW1990 cells (purchased from Shanghai Fuheng Biology) were cultured and passaged for at least three generations before use. Cells were used at about 90% confluency for experiments. Cells were digested with trypsinase and centrifuged at 800 rpm for 5 minutes. The cell pellets were resuspended in fresh DMEM medium and cells were counted. Cells were seeded on 96-well cell culture plates at 5000 cells/well and incubated overnight at 37° C., 5% CO2. The stock solutions of the test substances (including the test compounds and the reference compound) were serially diluted to 8 concentrations with DMSO at a ratio of 1:3. 5 μL of each serially diluted solutions was added to 120 μL of medium (diluted by 25 times) and mixed by shaking. […] The cell culture plates were returned to incubator at 37° C. and 5% CO2 for 5 days. At the end of the treatment the cell viability was determined by MTT colorimetric assay. Cell culture medium in each well was replaced by 100 μL/well of serum-free fresh medium containing MTT (0.5 mg/mL), and the culture was continued for additional 4 hours. Medium was then discarded and 100 μL/well of DMSO was added.
Data was analyzed by GraphPad Prism 6.0. The inhibitory effects of compounds on cell proliferation were plotted based on cell viability vs. the logarithm of compound concentration. Cell viability %=(ODcompound−ODbackground)/(ODDMSO−ODbackground)×100.

In assay [3] the test system is human colon cancer cell LoVo. Kind of assay: Proliferation of LoVo cells, MTT assay. Type of assay: cell-based. To be noted: 96 h, 4 days treatment, read-out: IC50 (inhibition of proliferation of LoVo).

For `COc1c(Cl)ccc(OC[C@@H]2CNCCO2)c1-c1cc(Nc2cnc(C#N)cn2)n[nH]1` [Example 15, (S)-5-((5-(3-chloro-2-methoxy-6-(morpholin-2-ylmethoxy)phenyl)-1H-pyrazol-3-yl)amino)pyrazine-2-carbonitrile], the IC50 in assay [1] was over 1000 nM; in assay [2], 809 nM. Moreover, on CHK1 kinase, the inhibition at 0.01 µM was 40%.
With `COc1cccc(OC[C@H]2CCCNC2)c1-c1cc(Nc2cnc(C#N)cn2)n[nH]1` [Example 9, (S)-5-((5-(2-methoxy-6-(piperidin-3-ylmethoxy)phenyl)-1H-pyrazol-3-yl)amino)pyrazine-2-carbonitrile], the IC50 in assay [1] is 1.2 nM; in assay [3], 4.4 nM; on CHK1 kinase, 0.97 nM; in assay [2], 1.2 nM. Moreover, the inhibition at 0.01 µM on CHK1 kinase was determined as 92%.
Regarding `COc1cccc(OC2CCNCC2)c1-c1cc(Nc2cnc(C#N)cn2)n[nH]1` [Example 30, 5-((5-(2-methoxy-6-(piperidin-4-yloxy)phenyl)-1H-pyrazol-3-yl)amino)pyrazine-2-carbonitrile], the IC50 amounted to 31.7 nM in assay [1] and 19.1 nM in assay [2]. Moreover, on CHK1 kinase, the inhibition at 0.01 µM is 89%.
In the case of `COc1cccc(OCC2CCNCC2)c1-c1cc(Nc2cnc(C#N)cn2)n[nH]1` [Example 12, 5-((5-(2-methoxy-6-(piperidin-4-ylmethoxy)phenyl)-1H-pyrazol-3-yl)amino)pyrazine-2-carbonitrile], the values for the IC50 (in assay [1]; at CHK1 kinase; in assay [2]) were 13.9 nM, 0.72 nM and 10.1 nM, respectively.
`COc1cc(Br)cc(OC[C@@H]2CNCCO2)c1-c1cc(Nc2cnc(C#N)cn2)n[nH]1` [Example 18, (S)-5-((5-(4-bromo-2-methoxy-6-(morpholin-2-ylmethoxy)phenyl)-1H-pyrazol-3-yl)amino)pyrazine-2-carbonitrile]: the values for the IC50 in assay [1] and in assay [2] were 39.2 nM and 19.6 nM, respectively. For the same molecule, at CHK1 kinase, the inhibition at 0.01 µM was 79%.
In the same order, the values of `COc1ccc(Cl)c(OC[C@@H]2CNCCO2)c1-c1cc(Nc2cnc(C#N)cn2)n[nH]1` [Example 17, (S)-5-((5-(3-chloro-6-methoxy-2-(morpholin-2-ylmethoxy)phenyl)-1H-pyrazol-3-yl)amino)pyrazine-2-carbonitrile] are 895 nM, 615 nM and 50%.
In the same order, the values of `COc1cccc(OC[C@@H]2CNCCO2)c1-c1cc(Nc2ccc(C#N)nc2)n[nH]1` [Example 2, (S)-5-((5-(2-methoxy-6-(morpholin-2-ylmethoxy)phenyl)-1H-pyrazol-3-yl)amino)picolinonitrile] are 153 nM, 84.9 nM and 85%.
`COc1cc(F)cc(OC[C@@H]2CNCCO2)c1-c1cc(Nc2cnc(C#N)cn2)n[nH]1` [Example 14, (S)-5-((5-(4-fluoro-2-methoxy-6-(morpholin-2-ylmethoxy)phenyl)-1H-pyrazol-3-yl)amino)pyrazine-2-carbonitrile]: the IC50 in assay [1] was determined as 12 nM; in assay [3], 19.2 nM; at CHK1 kinase, 0.69 nM; in assay [2], 6.1 nM. Besides, at CHK1 kinase, the inhibition at 0.01 µM was 94%.
Turning to `COc1cccc(OC[C@@H]2CNCCO2)c1-c1cc(Nc2cnc(C(F)(F)F)cn2)n[nH]1` [Example 5, (S)—N-(5-(2-methoxy-6-(morpholin-2-ylmethoxy)phenyl)-1H-pyrazol-3-yl)-5-(trifluoromethyl)pyrazin-2-amine], the IC50 is 394 nM in assay [1] and 287 nM in assay [2]. On CHK1 kinase, the inhibition at 0.01 µM is 50%.
Regarding `COc1cccc(OC[C@H]2CCNC2)c1-c1cc(Nc2cnc(C#N)cn2)n[nH]1` [Example 13, (S)-5-((5-(2-methoxy-6-(pyrrolidin-3-ylmethoxy)phenyl)-1H-pyrazol-3-yl)amino)pyrazine-2-carbonitrile], the IC50 turned out to be 2.1 nM in assay [1], 0.45 nM on CHK1 kinase and 1.9 nM in assay [2].
As to `COc1cc(Cl)cc(OC[C@@H]2CNCCO2)c1-c1cc(Nc2cnc(C#N)cn2)n[nH]1` [Example 16, (S)-5-((5-(4-chloro-2-methoxy-6-(morpholin-2-ylmethoxy)phenyl)-1H-pyrazol-3-yl)amino)pyrazine-2-carbonitrile], the IC50 in assay [1] and in assay [2] was 11.8 nM throughout. The inhibition at 0.01 µM at CHK1 kinase worked out at 93%.
Consider `COc1cccc(OC[C@H]2CNCCO2)c1-c1cc(Nc2cnc(C#N)cn2)n[nH]1` [Example 3, (R)-5-((5-(2-methoxy-6-(morpholin-2-ylmethoxy)phenyl)-1H-pyrazol-3-yl)amino)pyrazine-2-carbonitrile], for which the IC50 in assay [1] stood at 94.2 nM; in assay [2], 50.7 nM. For the same molecule, the inhibition at 0.01 µM on CHK1 kinase worked out at 79%.
In the case of `COc1cccc(OC[C@@H]2CNCCO2)c1-c1cc(Nc2cnc(C#N)cn2)n[nH]1` [Example 1, (S)-5-((5-(2-methoxy-6-(morpholin-2-ylmethoxy)phenyl)-1H-pyrazol-3-yl)amino)pyrazine-2-carbonitrile], the IC50 worked out at 7.4 nM in assay [1], 15.5 nM in assay [3], 0.84 nM on CHK1 kinase and 6.3 nM in assay [2]. In addition, the inhibition at 0.01 µM on CHK1 kinase came out at 95%.
Take `COc1cccc(OC[C@@H]2CN(C)CCO2)c1-c1cc(Nc2cnc(C#N)cn2)n[nH]1` [Example 4, (S)-5-((5-(2-methoxy-6-((4-methylmorpholin-2-yl)methoxy)phenyl)-1H-pyrazol-3-yl)amino)pyrazine-2-carbonitrile]: the IC50 in assay [1] stood at 139 nM; in assay [2], 123 nM. Moreover, the inhibition at 0.01 µM on CHK1 kinase was determined as 82%.
As for `COc1cc(F)cc(OC[C@H]2CCCNC2)c1-c1cc(Nc2cnc(C#N)cn2)n[nH]1` [Example 38, (S)-5-((5-(4-fluoro-2-methoxy-6-(piperidin-3-ylmethoxy)phenyl)-1H-pyrazol-3-yl)amino)pyrazine-2-carbonitrile], the IC50 in assay [1] is 3.5 nM; in assay [3] it was 3.2 nM; at CHK1 kinase, 0.52 nM.

These data come from US12492197B2, “3,5-disubstituted pyrazole compounds as kinase inhibitors and uses thereof” (IMPACT THERAPEUTICS (SHANGHAI), INC, priority 2019, dated 2025).
